Laboratory results: US20010046491A1, “Tumor radiosensitization with mutant thymidine kinase in combination with a prodrug” (priority 2000, published 2001)

Tested on: rat RT2 glioma cells
Assay: MTT growth/toxicity assay of adenovirus-infected RT2 cells exposed to GCV or ACV
Format: cell-based
Details: 1-100 microM; for effect of prodrug on cell growth/toxicity (MTT): control AdCMV (empty vector)-infected RT2 cells, 5 days
Description: FIG. 2. Mutant HSV-TK75 sensitizes rat RT2 glioma cells to GCV and ACV more efficiently than wild type HSV-TK. Rat RT2 cells were infected with AdCMV (empty vector), AdCMV-TK, or AdCMV-TK75. At 2 days postinfection, cells were trypsinized, serially diluted, seeded in microtiter plates, and exposed to various doses of ACV or GCV. After 5 days, the plates were processed for growth/toxicity by MTT assay. (Contessa et al., 1999). Values were normalized to values from cells that were infected but not treated with GCV or ACV.
RT2 cells (a rat glioma cell line derived from Fischer 344 rats (Wilfong et al. 1973) that form tumors with features typical of human glioblastoma (Mahaley et al, 1977) were cultured in Dulbecco's modified Eagle's medium with 10% fetal bovine serum supplemented with penicillin/strepto-mycin. (Brust et al., 2000). Infected cells were exposed to Zovirax/ACV (manufactured by Glaxo Wellcome, Chapel Hill, N.C.) or GCV (kindly provided by Syntex, Palo Alto, Calif.) added to the medium. Cells were irradiated in medium with a ^60Co γ irradiator (Picker Zonegard V4 M60; Picker Interational, Cleveland, Ohio) set at 1 Gy/minute. Cell viability was determined by the 3-(4,5-dimethylthiazol-2-yl)-2,5-[…] bromide (MTT) assay. (Contessa et al, 1999). Terminal deoxynucleotidyltransferase-mediated deoxyuridine triphosphate nick end labeling assays were carried out with an ApopTag Direct kit from Oncor (Gaithersburg, Md.), according to the manufacturer's instructions, to provide a measurement of apoptosis.
It was subsequently determined whether infection of RT2 cells with the adenovirus expressing mutant HSV-TK 75 was able to predispose RT2 cells to killing by GCV and ACV more efficiently than cells infected with virus expressing wild type HSV-TK. At 2 days postinfection, infected cells were exposed to increasing concentrations (1-100 microM) of either GCV or ACV. As a control, we used an adenovirus(AdCMV) carrying no transgene.

Structure (SMILES): Nc1nc(O)c2ncn(COC(CO)CO)c2n1 [GCV, ganciclovir]
- cell killing, comparison of prodrugs (AdCMV-TK-infected RT2 cells): more effective than with ACV
- effect of prodrug on cell growth/toxicity (MTT): little to no effect

Structure (SMILES): Nc1nc2c(ncn2COCCO)c(=O)[nH]1 [ACV, acyclovir]
- effect of prodrug on cell growth/toxicity (MTT): little to no effect
